Target: T1, DcDop2 (Diaphorina citri, UniProt A0A3Q0INR4)
T1 construct: gene LOC103507230; full ORF (2049 nt, 682 residues) in pcDNA3.1, transiently expressed in CHO-WTA11 cells (Galpha16 and aequorin)
T1 sequence (A0A3Q0INR4 1-682): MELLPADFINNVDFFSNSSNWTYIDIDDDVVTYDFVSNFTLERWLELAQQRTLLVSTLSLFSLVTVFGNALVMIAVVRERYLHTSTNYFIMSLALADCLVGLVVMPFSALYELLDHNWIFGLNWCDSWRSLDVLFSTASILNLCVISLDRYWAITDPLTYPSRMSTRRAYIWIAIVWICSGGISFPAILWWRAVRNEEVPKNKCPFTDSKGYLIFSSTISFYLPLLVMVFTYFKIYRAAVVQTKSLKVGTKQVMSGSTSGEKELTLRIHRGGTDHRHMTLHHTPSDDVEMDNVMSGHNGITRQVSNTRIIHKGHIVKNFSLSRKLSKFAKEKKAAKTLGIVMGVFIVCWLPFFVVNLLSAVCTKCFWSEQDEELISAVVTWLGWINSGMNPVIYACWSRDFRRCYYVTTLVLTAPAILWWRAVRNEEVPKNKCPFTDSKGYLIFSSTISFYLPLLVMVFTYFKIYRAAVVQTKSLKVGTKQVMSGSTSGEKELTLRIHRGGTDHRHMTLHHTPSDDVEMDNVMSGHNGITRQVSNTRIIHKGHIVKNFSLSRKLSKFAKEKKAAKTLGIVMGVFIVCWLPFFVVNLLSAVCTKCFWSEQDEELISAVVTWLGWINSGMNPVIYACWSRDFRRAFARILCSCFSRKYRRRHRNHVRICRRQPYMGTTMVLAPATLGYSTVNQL
Experiment: aequorin calcium mobilization luminescence in transfected CHO-WTA11 cells
Format: cell-based

Work on `NCCc1ccc(O)c(O)c1` [DA, dopamine] yielded an EC50 of 4.05 nM.
